Columns and labels:
[1] = target: T1, DtolTA (PLP-dependent transaminase of fold type IV) (Desulfobacula toluolica, UniProt K0NPP0); test: half-reaction (deamination) kinetics, absorbance at […] nm; kmax/KD^app; assay type: biochemical; design: gene dat; (His)6-tagged DtolTA
T1 sequence (K0NPP0 1-286): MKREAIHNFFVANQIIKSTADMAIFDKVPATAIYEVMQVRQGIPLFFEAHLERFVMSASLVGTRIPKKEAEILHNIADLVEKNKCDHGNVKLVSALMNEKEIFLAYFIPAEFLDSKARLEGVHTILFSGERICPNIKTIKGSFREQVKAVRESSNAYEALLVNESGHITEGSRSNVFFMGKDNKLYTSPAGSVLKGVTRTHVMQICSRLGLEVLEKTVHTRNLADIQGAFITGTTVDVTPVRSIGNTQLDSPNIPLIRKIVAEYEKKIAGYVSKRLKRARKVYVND

[2] = target: TA from Haliscomenobacter hydrossis (Haliscomenobacter hydrossis); test: SEC; gel filtration of the purified enzyme; column and buffer not given
[3] = target: T2, DtolTA (PLP-dependent transaminase of fold type IV) (Desulfobacula toluolica, UniProt K0NPP0, R144I); test: tyrosine fluorescence quenching titration of apoenzyme; assay type: binding
T2 construct: gene dat; (His)6-tagged DtolTA variant
Excerpt: tyrosine fluorescence quenching titration of apoenzyme on DtolTA (PLP-dependent transaminase of fold type IV) | apparent dissociation constant Kd(PLP) for the R144I holoenzyme were similar to those of WT

[4] = target: T1, DtolTA (PLP-dependent transaminase of fold type IV); test: crystal structure (9J0V […] Å; also 9J0U […] Å); tyrosine fluorescence quenching titration of apoenzyme; assay type: binding; design: gene dat; full length, 286 a.a; (His)6-tagged for Kd, tag removed for crystals
[5] = target: T2, DtolTA (PLP-dependent transaminase of fold type IV); test: half-reaction (deamination) kinetics, absorbance at […] nm; kmax/KD^app; assay type: biochemical
[6] = target: T3, DtolTA (PLP-dependent transaminase of fold type IV) (Desulfobacula toluolica, UniProt K0NPP0, K91A); test: half-reaction kinetics of variant apoenzyme in the presence of PLP; kmax/KD^app at pH […]; assay type: biochemical
T3 construct: gene dat; (His)6-tagged DtolTA variant

[7] = target: T1, DtolTA (PLP-dependent transaminase of fold type IV); test: half-reaction (deamination) kinetics, absorbance at […] nm; kmax/KD^app at pH […]; assay type: biochemical; design: gene dat; (His)6-tagged DtolTA

N[C@H](CCC(=O)O)C(=O)O [D-glutamate]
half-reaction (deamination) kinetics, absorbance at 411 nm; kmax/KD^app [1]: 0.020 ± 0.001 M⁻¹ s⁻¹

TA from Haliscomenobacter hydrossis (enzyme)
stoichiometry N [2]: 2

Cc1ncc(COP(=O)(O)O)c(C=O)c1O [pyridoxal-5′-phosphate]
Kd [3]: 43 ± 2 µM | Kd [4]: 30 ± 4 µM

C[C@@H](N)c1ccccc1 [(R)-1-phenylethylamine]
half-reaction (deamination) kinetics, absorbance at 411 nm; kmax/KD^app [1]: 0.015 ± 0.005 M⁻¹ s⁻¹

C[C@@H](N)C(=O)O [D-alanine]
half-reaction (deamination) kinetics, absorbance at 411 nm; kmax/KD^app [5]: 29 ± 1 M⁻¹ s⁻¹ | half-reaction kinetics of variant apoenzyme in the presence of PLP; kmax/KD^app [6]: 2.4 ± 0.7 M⁻¹ s⁻¹ | half-reaction (deamination) kinetics, absorbance at 411 nm; kmax/KD^app at pH 8. [7]: 37 ± 1 M^−1s^−1
